Common to all, as to test: Two-electrode Voltage Clamp Electrophysiology
What all share (conditions): pH 7.4; 25 °C

Experiment [1] concerns the target Glutamate receptor ionotropic, NMDA 2A (Rat, UniProt Q00959+Q62683). The procedure: (§1) Two-electrode voltage clamp (TEVC) recordings were performed on Xenopus oocytes at room temperature 3-6 days postinjection using an OC-725C TEVC amplifier (Warner Instruments, Hamden, CT). […] Voltage and current electrodes were filled with 0.3 and 3 M KCl, respectively. During recordings, oocytes were placed in a recording chamber and perfused with the extracellular recording solution comprised of 90 mM NaCl, 1 mM KCl, 10 mM HEPES, 0.5 mM BaCl2, and 0.01 mM EDTA (pH 7.4 with NaOH). Current responses were recorded at a holding potential of -40 and -60 mV for GluN1/N2 and GluN1/N3 receptors, respectively. Compounds were dissolved in extracellular recording solution and applied to the oocyte by gravity-driven perfusion using a computer-controlled 8-modular valve positioner (Digital MVP, Hamilton, Reno, NV).

The target in experiment [2] is Glutamate receptor ionotropic, NMDA 1 [F484A,T518L]/3A (Rattus norvegicus, UniProt P35439+Q9R1M7, F484A/T518L). The procedure: as §1
For experiment [3], the target named is Glutamate receptor ionotropic, NMDA 1 [F484A,T518L]/3B (Rattus norvegicus, UniProt P35439+Q8VHN2, F484A/T518L). The procedure: as §1
In another experiment the target is Glutamate receptor 1 (Rattus norvegicus, UniProt P19490). The procedure: as §1
In experiment [4] the target is Glutamate receptor ionotropic, NMDA 2C (Rat, UniProt Q00961+Q62683). The procedure: as §1
Experiment [5] concerns the target Glutamate receptor ionotropic, NMDA 2B (Rat, UniProt Q00960+Q62683). The procedure: as §1
Experiment [6] has as its target Glutamate receptor ionotropic, NMDA 2D (Rat, UniProt Q62645+Q62683). The procedure:
as §1

Each structure is given as a SMILES string. pIC50, pKi: −log10 of the molar value.

Chain of Glutamate receptor ionotropic, NMDA 2A (Q00959 whole entry, other chains not shown, the tested form may be a part): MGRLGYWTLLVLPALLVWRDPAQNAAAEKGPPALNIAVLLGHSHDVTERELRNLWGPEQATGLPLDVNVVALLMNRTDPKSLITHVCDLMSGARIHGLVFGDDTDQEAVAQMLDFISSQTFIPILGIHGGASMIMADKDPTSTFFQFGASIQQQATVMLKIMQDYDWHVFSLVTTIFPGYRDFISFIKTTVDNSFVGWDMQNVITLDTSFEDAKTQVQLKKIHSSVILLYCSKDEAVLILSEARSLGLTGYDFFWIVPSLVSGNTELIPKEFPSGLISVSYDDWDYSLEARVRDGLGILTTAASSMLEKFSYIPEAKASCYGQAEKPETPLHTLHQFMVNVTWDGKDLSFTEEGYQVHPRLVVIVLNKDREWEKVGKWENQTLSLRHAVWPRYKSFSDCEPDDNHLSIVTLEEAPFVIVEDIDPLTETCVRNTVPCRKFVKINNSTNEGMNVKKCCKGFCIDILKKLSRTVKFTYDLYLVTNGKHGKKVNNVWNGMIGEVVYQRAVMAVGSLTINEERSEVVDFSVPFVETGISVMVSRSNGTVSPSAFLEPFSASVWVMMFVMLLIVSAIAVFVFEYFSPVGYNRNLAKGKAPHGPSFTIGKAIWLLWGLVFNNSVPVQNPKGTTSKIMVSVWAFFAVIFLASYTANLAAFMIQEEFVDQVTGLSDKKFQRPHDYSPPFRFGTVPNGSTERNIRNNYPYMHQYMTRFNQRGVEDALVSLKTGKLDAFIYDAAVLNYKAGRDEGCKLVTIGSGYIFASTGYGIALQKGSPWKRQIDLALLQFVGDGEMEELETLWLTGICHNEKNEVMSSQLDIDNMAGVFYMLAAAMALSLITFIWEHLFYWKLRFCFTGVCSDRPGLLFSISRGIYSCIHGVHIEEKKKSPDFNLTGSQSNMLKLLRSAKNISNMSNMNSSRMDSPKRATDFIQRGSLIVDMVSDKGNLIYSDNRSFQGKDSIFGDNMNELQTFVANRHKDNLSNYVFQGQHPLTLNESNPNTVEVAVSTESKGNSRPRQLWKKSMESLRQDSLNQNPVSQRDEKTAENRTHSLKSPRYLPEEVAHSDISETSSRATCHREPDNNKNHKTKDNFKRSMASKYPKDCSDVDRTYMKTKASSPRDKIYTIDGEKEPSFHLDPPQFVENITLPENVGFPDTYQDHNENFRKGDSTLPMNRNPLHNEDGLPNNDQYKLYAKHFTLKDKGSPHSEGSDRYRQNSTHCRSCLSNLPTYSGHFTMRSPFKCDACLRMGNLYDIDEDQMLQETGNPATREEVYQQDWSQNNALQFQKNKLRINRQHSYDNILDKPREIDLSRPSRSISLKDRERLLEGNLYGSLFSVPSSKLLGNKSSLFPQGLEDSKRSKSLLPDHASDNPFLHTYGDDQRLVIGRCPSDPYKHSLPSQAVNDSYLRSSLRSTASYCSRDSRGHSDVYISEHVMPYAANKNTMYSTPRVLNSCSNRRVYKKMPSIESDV
Chain of Glutamate receptor 1 (P19490 whole entry): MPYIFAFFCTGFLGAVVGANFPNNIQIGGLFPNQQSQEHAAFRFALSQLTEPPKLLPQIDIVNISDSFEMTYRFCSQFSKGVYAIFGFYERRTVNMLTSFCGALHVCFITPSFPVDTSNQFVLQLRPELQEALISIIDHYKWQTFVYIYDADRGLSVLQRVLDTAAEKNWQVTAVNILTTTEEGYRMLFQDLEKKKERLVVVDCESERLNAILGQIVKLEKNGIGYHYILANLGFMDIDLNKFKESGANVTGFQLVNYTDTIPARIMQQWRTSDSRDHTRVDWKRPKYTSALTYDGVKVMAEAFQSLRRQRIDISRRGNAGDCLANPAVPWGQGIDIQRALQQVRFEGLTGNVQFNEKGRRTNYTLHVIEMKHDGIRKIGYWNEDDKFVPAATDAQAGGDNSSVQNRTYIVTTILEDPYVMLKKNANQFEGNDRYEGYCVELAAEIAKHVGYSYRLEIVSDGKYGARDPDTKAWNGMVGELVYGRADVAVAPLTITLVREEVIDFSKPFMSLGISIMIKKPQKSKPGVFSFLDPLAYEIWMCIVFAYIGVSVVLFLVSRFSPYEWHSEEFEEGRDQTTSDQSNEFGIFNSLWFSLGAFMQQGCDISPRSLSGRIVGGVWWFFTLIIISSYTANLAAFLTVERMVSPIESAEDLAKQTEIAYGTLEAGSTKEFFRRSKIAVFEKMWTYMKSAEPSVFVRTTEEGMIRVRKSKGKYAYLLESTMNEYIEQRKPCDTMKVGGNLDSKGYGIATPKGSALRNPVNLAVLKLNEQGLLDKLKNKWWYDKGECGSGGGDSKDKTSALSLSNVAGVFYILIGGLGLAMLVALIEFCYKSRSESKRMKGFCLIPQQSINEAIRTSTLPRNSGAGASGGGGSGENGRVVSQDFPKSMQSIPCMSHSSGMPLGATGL
Chain of Glutamate receptor ionotropic, NMDA 1 [F484A,T518L]/3A (Q9R1M7 24-1135 limits assumed, other chains not shown): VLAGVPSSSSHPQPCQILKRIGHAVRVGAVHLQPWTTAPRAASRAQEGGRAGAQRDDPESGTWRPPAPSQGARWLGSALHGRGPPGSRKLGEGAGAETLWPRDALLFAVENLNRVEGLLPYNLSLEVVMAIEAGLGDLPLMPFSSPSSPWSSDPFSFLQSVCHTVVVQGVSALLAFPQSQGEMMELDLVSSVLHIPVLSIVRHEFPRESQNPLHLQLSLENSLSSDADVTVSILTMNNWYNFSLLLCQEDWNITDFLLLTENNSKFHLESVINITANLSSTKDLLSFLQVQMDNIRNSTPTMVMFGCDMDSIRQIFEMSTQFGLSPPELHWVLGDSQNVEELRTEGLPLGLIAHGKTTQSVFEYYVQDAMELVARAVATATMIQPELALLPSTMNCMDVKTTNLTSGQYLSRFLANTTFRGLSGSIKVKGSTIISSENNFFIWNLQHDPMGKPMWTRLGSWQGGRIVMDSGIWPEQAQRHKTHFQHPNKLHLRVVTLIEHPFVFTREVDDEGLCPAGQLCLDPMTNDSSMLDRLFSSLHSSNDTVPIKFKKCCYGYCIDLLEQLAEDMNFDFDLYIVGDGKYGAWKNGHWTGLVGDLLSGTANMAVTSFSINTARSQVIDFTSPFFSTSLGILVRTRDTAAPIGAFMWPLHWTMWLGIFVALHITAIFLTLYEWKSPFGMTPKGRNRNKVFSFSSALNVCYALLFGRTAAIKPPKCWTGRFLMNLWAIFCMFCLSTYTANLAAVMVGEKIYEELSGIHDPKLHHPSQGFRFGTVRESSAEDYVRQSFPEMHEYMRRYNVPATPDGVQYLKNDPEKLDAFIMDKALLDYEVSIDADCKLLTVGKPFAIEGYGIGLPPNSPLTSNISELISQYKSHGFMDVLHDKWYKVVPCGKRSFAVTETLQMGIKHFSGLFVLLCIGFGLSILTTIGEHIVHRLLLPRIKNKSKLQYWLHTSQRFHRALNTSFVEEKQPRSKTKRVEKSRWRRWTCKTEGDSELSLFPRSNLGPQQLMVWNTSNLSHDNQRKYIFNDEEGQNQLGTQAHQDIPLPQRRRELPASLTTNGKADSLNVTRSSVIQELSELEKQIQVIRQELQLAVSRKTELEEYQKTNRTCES
Chain of Glutamate receptor ionotropic, NMDA 1 [F484A,T518L]/3B (Q8VHN2 25-1002 limits assumed, other chains not shown): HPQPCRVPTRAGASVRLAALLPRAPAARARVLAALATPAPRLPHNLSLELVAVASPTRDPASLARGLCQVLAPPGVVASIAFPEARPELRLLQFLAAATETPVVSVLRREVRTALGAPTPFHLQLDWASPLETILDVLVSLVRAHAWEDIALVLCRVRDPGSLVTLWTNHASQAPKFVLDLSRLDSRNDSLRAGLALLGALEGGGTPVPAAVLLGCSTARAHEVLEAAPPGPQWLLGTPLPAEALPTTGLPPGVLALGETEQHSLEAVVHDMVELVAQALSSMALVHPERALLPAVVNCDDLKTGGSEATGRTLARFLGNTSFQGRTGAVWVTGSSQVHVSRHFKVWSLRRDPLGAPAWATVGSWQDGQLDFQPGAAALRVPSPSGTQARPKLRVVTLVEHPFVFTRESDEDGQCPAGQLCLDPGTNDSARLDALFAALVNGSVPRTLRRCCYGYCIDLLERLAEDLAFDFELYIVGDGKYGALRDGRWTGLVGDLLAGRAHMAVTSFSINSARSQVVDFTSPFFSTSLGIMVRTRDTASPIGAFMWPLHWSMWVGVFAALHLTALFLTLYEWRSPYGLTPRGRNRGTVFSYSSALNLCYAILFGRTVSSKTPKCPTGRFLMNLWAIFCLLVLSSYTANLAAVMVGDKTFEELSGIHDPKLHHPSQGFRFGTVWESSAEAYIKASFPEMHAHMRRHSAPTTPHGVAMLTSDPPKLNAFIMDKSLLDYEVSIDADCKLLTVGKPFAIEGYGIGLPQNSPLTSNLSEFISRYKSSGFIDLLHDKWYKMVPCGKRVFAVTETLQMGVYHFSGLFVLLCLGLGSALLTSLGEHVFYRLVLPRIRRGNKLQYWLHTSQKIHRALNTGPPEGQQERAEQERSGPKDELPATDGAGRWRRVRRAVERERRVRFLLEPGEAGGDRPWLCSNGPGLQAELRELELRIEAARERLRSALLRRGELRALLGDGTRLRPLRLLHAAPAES

As to `O=C(O)c1cc(O)c2c(Cl)cc(Cl)cc2n1` [5,7-Dichlorokynurenic acid (5,7-DCKA)], the pIC50 in experiment [1] was 7.04; in experiment [2], 4.01; in experiment [3] it was less than 3.52. In addition, the pKi was 7.19 in experiment [1], 4.46 in experiment [2] and less than 3.82 in experiment [3].
For the molecule `O=c1[nH]c2ccccc2n2c(S)nnc12` [1-thioxo-1,2-dihydro-[1,2,4]triazolo[4,3-a]-quinoxalin-4(5H)-one], the pIC50 against Glutamate receptor 1 was less than 3.52; in experiment [1], 6.11. Besides, the pKi on Glutamate receptor 1 was less than 3.74; in experiment [1], 6.25; in experiment [4], less than 6.10; in experiment [5], less than 5.89; in experiment [6] it was less than 6.52.

The values are drawn from BindingDB's records for doi:10.1074/jbc.M113.480210 (University of Copenhagen, 2013).
